{"source": "patent US7998970B2", "about": "“Use of finasteride, dutasteride and related compounds for the prevention or treatment of neurologically-associated disorders” (ProteoSys AG, priority 2004, dated 2011)", "key": {"[1]": {"system": "mitochondrial permeability transition pore (MPTP)", "experiment": "Functional test of the MPTP by Rhodamine-123 assay", "format": "cell-based, mouse", "settings": "for inhibition of release of Rhodamine-123 from mitochondria after opening of the MPTP: 0.5, 1, 10, 20 μM, FIG. 6", "protocol": "Ant1 is one of the essential components of the MPTP, and thus was tested functionally by a fluorescent assay described by Metzger et al. (Metzger et al. Optical assessment of motoneuron function in a “twenty-four-hour” acute spinal cord slice model from fetal rats. Journal of Neuroscience Methods 141, 2005, 309320). Briefly, cells were incubated with Rhodamine-123 ([…]) at 37° C. for 20 min. Rhodamine-123 was dissolved at 5 mg/ml in ethanol. For measurements of the membrane potential ψ, cells loaded with Rhodamine-123 were excited at 480 nm and emission was monitored at 565 nm. The lipophilic cation Rhodamine-123 accumulates in mitochondria where its fluorescence intensity is quenched at high concentrations (Chen, 1988; Scaduto and Grotyohann, 1999). A depolarizing change of ψ is indicated by an increase in the intensity of fluorescence in response to dequenching of the dye after release from mitochondria (Emaus et al., 1986; Duchen, 1992, 2000). Thus we refer to the relative change in ψ as the percentage change in Rhodamine-123 fluorescence (Schuchmann et al., 2000)."}, "[2]": {"system": "β-amyloid plaques", "experiment": "In vivo assay of β-amyloid plaque formation in a mouse model of Alzheimer's disease (APPPS mice)", "protocol": "A quite aggressive model for Alzheimer's disease is a double transgenic mouse line expressing mutated human amyloid precursor protein (APP) and presinilin-1 (PS). Between months 4 and 5 a maximal additional increase of the plaque load of 35-40% can be expected (exponential fit, FIG. 9).\nDutasteride was administered orally every day after animals became 4 months old, for 30 days at a maximum concentration of 2 mg/day.\nTechnically, images were recorded from whole brain sections (Olympus Fluorescence microscope AX70, Digital camera Casio QV4000; resolution 2240×1680 Pixel, with constant overall intensity in all images) A software-assisted procedure was then used to quantify overall areas of NT12 stain (anti-β-amyloid stain) (plaque area), and NT12 stain volumes in these areas by defining thresholds and relating them to overall proportions of respective slices (plaque volume)."}, "[3]": {"system": "G361 cells", "experiment": "Autophagy-related assay employing WIPI-staining", "format": "cell-based, human", "settings": "0.25, 0.5, 1.0 or 2.0 μM tested; FIG. 7", "experimental": "The presence of autophagy is quantified by a polyclonal hWIPI-1 antiserum, which was generated by immunizing rabbits (Charles River) with two synthetic peptides representing C-terminal regions in hWIPI-1 (363nkendlrpslp373, 407lrgevipehefatgpv422) and used at a dilution of 1:5000 in ECLWestern blotting detections (Amersham), and at 1:250 for indirect immunofluorescent stainings.\nFor these stainings, cells were fixed in 3.7% paraformaldehyde (15 min, RT) and analysed by confocal microscopy (see below). To visualize endogenous hWIPI-1 in G361 cells consecutive incubations were conducted using C-terminal hWIPI-1 antiserum at 1:250 (30 min, RT) and Alexa 546 or Alexa 488 labelled goat anti-rabbit IgG (Molecular Probes) at 1:500 (30 min, RT) in PBS/0.1% Tween (blocking/permeabilization: PBS/0.1% Tween/1% BSA, 30 min RT; washing: PBS/0.1% Tween). For nuclear staining, TO-PRO-3 (Molecular Probes) was used at 1:1000. Finally, cells were mounted in Vectashield Mounting Medium (Vector Laboratories) and kept in the dark (41C). Confocal laser scanning microscopy was conducted using a LSM510 microscope (Zeiss) and a 63— 1.4 DIC Plan-Apochromat oil-immersion objective. GFP and Alexa 488 were excited at 488 nm with the internal argon-ion laser. Alexa 546 and TO-PRO-3, respectively, were excited at 543 and 633 nm with helium-neon lasers. […]"}, "[4]": {"system": "neurons derived from D3 embryonic stem (ES) cells", "experiment": "Excitotoxic paradigm (100 μM NMDA), neuroprotection in cell culture model", "format": "cell-based", "protocol": "(§1) For all experiments, D3 embryonic stem (ES) cells derived from 129/sv mice [Okabe et al., 1996] were cultivated for 12 days, with passages on days 2, 4, 7 and 9 as described previously [Sommer et al., 2004]. Insult conditions: Cells (24-well plates) were pre-incubated with or without 20 nM EPO (neuroprotective agent, positive control) in fresh medium for 24 hours at 37° C. Cells were rinsed once with low K^+ solution (140 mM NaCl, 4.7 mM KCl, 1.2 mM KH2PO4, 2.5 mM CaCl2, 1.2 mM MgSO4, 11 mM glucose, 15 mM Hepes-NaOH, pH 7.35). Cells (either with or without EPO pre-incubation) were incubated for up to 45 min (37° C.) with either low K^+ solution or with glucose-free low K^+ solution supplemented with 1 mM KCN chemical ischemia solution [Kume et al., 2002, Schrattenholz et al., 2005]. This insult relates to ischemic conditions in stroke. In addition similar cellular insults were established using glutamatergic agonists to induce excitotoxicity (Sommer et al., 2004) and respective neuroprotection related to stroke and epilepsy; and β-amyloid induced toxicity (incubation of neurons with 10 μM β-amyloid1-40 for 10 min, resulting in Ca-influx and neuronal death) and respective rescue related to Alzheimer's disease. Vitality control to assess numbers of surviving neurons was performed in all of these cases by a brief stimulation with a low dose of glutamate (10 μM). Afterwards, cells were washed three times with ice cold phosphate buffered saline (PBS), and then proteins were harvested. Suspended cells were pelleted at 500×G, and lysed into 9M urea 4% CHAPS. The cell lysate was desalted with a NAP-10 column (Amersham Biosciences), preequilibrated with the same buffer, and protein content was determined.\n(§2) Functional tests by calcium imaging were performed essentially as described [Sommer et al., 2004]. Briefly, cells were loaded with 2 μM of fura-2 AM in DMEM for 45 min at 37° C. in the dark. Measurements of relative changes in [Ca^2+] were made on an inverted epifluorescence microscope (Olympus IX70 S1F2) with a Polychrom IV Monochromator (Xe-lamp, USHIO). Excitation wavelengths (λ1, λ2) and the emission wavelength were 340, 380 and 510 nm, respectively. Acquisition and analysis of data after appropriate stimulation were performed by using MetaFluor software (Universal Imaging Corporation). Image resolution was 168×129 pixels (binning 8×8, pixel size 6.8×6.8 μm). Only cells identified as neurons by morphological criteria and occasional immunostaining (not shown) and those whose calcium levels returned to the resting state after the first stimulation were taken into account. Controls included nominal zero calcium (negative) and 5 μM ionomycin (positive), 10 μM glutamate (positive) and depolarisation (55 mM K+) (positive). […]"}, "[5]": {"system": "neurons derived from D3 embryonic stem (ES) cells", "experiment": "Chemical ischemia-induced neuronal death and neuroprotection, cell culture model", "format": "cell-based, mouse", "settings": "for EC50: Mus musculus, Neuron, read-out: EC50 of neuroprotective effect, chemical ischemia; for neuroprotective effect compared between compounds: each 1 μM, FIG. 3", "protocol": "as §1\nFunctional tests by calcium imaging were performed essentially as described [Sommer et al., 2004]. Briefly, cells were loaded with 2 μM of fura-2 AM in DMEM for 45 min at 37° C. in the dark. Measurements of relative changes in [Ca^2+] were made on an inverted epifluorescence microscope (Olympus IX70 S1F2) with a Polychrom IV Monochromator (Xe-lamp, USHIO). Excitation wavelengths (λ1, λ2) and the emission wavelength were 340, 380 and 510 nm, respectively. Acquisition and analysis of data after appropriate stimulation were performed by using MetaFluor software (Universal Imaging Corporation). Image resolution was 168×129 pixels (binning 8×8, pixel size 6.8×6.8 μm). Only cells identified as neurons by morphological criteria and occasional immunostaining (not shown) and those whose calcium levels returned to the resting state after the first stimulation were taken into account. Controls included nominal zero calcium (negative) and 5 μM ionomycin (positive), 10 μM glutamate (positive) and depolarisation (55 mM K+) (positive). Pharmacological agents were applied by a multi-valve, single-output focal drug application device (ALA Scientific) with the perfusion system DAD-12. […] During each stimulation event 20 image pairs were acquired."}, "[6]": {"system": "neurons derived from D3 embryonic stem (ES) cells", "experiment": "β-amyloid-induced neuronal death (10 μM Aβ1-40), rescue in cell culture model", "format": "cell-based", "protocol": "as §1, §2"}, "[7]": {"target": "T1, Kv1.5+Kvβ2.1 (Homo sapiens, UniProt Q13303)", "T1 construct": "expressed in transfected cells; host or cells: Xenopus oocytes", "T1 sequence (Q13303 whole entry)": "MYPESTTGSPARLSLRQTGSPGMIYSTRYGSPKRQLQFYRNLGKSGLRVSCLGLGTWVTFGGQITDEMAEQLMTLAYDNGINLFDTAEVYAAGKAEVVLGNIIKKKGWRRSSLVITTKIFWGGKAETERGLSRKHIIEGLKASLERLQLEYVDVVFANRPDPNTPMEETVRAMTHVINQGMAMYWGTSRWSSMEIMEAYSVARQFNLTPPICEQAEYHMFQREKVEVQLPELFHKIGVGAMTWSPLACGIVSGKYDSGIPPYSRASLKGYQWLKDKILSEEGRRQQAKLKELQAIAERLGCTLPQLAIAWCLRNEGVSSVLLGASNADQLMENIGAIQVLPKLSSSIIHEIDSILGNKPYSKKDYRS", "T1 sequence (P22460 whole entry partner)": "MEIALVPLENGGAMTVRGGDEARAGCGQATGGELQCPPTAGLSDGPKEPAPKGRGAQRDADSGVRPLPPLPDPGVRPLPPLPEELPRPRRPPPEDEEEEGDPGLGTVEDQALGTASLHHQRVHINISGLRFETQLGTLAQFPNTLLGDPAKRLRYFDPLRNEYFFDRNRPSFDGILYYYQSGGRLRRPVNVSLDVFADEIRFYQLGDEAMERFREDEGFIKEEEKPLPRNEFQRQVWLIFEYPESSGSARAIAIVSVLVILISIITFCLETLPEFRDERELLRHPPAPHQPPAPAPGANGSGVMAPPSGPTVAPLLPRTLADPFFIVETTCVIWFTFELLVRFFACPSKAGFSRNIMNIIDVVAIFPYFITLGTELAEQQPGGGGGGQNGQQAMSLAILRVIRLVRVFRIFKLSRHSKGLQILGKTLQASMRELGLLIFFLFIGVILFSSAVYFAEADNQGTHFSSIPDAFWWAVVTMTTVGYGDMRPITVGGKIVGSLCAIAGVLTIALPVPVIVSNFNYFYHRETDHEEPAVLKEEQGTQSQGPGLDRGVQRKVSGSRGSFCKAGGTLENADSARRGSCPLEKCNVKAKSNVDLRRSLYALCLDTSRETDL", "experiment": "K+ channel electrophysiology, inside-out patches of transfected Xenopus oocytes", "format": "cell-based", "settings": "1 μM Finasteride; Xenopus oocytes with Kv1.5 and Kvβ2.1, inside-out patches, FIG. 5", "protocol": "Xenopus oocytes were transfected with various subunit combinations of potassium channels, like Kv1.5+Kvβ2.1. Subsequently activation curves using inside-out patches (external: 2 mM K^+, internal: 96 mM K^+) were measured, they represent IV-curves using standard internal buffer solution (HK+), which were recorded in the presence and absence of 1 μM Finasteride. Corresponding plots of G/Gmax versus the membrane potential were used to evaluate related effects."}, "[8]": {"settings": "oral, 30 days, months 4 to 5, plaque area or plaque volume, order not stated"}, "[9]": {"settings": "Mus musculus, Neuron; read-out: EC50 of neuroprotective effect, excitotoxic paradigm (100 μM NMDA)"}, "[10]": {"settings": "Mus musculus, Neuron; read-out: EC50 of neuroprotective effect, β-amyloid toxicity (10 μM Aβ 1-40)"}}, "note": "Structures can show the parent of a compound that is named as a salt.", "data": [{"smiles": "C[C@]12C=CC(=O)N[C@@H]1CC[C@@H]1[C@@H]2CC[C@]2(C)[C@@H](C(=O)Nc3cc(C(F)(F)F)ccc3C(F)(F)F)CC[C@@H]12", "note": "[Dutasteride, 5α,17β-N-[2,5-bis(trifluoromethyl)phenyl]-3-oxo-4-azaandrost-1-ene-17-carboxamide]", "values": [{"measurement": "inhibition of release of Rhodamine-123 from mitochondria after opening of the MPTP", "setting": "[1]", "value": "dose-dependent"}, {"measurement": "inhibition of MPTP-formation and opening during ischemic conditions", "setting": "[1]; neural derivatives of embryonic stem cells", "value": "marked and significant inhibition"}, {"measurement": "overall reduction of plaque load versus non-treated controls, first value of 'respectively'", "setting": "[2]; [8]", "value": 12, "unit": "%"}, {"measurement": "overall reduction of plaque load versus non-treated controls, second value of 'respectively'", "setting": "[2]; [8]", "value": 13, "unit": "%"}, {"measurement": "load of β-amyloid plaques (NT12 stain) in treated versus non-treated group", "setting": "[2]; oral, daily for 30 days from month 4, max 2 mg/day, cortical slices, FIG. 8", "value": "significantly lower"}, {"measurement": "reduction of the plaque load relative to the increase expected between months 4 and 5", "setting": "[2]; related to expected increase of 35-40%", "value": "30-32.5%"}, {"measurement": "enhancement of autophagy in surviving G361 cells", "setting": "[3]", "value": "dose-dependent effect"}, {"measurement": "EC50", "setting": "[4]; Mus musculus, Neuron, read-out: EC50 of neuroprotective effect, excitotoxic paradigm (100 μM NMDA)", "value": 1500, "unit": "nM"}, {"measurement": "EC50", "setting": "[5]", "value": 300, "unit": "nM"}, {"measurement": "neuroprotective effect compared between compounds", "setting": "[5]", "value": "comparable and strongest"}, {"measurement": "EC50", "setting": "[6]; Mus musculus, Neuron, read-out: EC50 of neuroprotective effect, β-amyloid toxicity (10 μM Aβ 1-40)", "value": 100, "unit": "nM"}]}, {"smiles": "CC(C)(C)NC(=O)[C@H]1CC[C@H]2[C@@H]3CC[C@H]4NC(=O)C=C[C@]4(C)[C@H]3CC[C@]12C", "note": "[Finasteride, 17β-(N-tert-butylcarbamoyl)-4-aza-5α-androst-1-en-3-one]", "values": [{"measurement": "inhibition of release of Rhodamine-123 from mitochondria after opening of the MPTP", "setting": "[1]", "value": "dose-dependent"}, {"measurement": "enhancement of autophagy in surviving G361 cells", "setting": "[3]", "value": "dose-dependent effect"}, {"measurement": "EC50", "setting": "[4]; [9]", "value": 2000, "unit": "nM"}, {"measurement": "shift of the IV-curve (G/Gmax versus membrane potential)", "setting": "[7]", "value": "small shift of the IV-curve towards more negative potential"}, {"measurement": "protection against neuronal death induced by chemical ischemia", "setting": "[5]; 100 nM-1 μM present during the ischemic insult, FIG. 2", "value": "substantial protection"}, {"measurement": "surviving rate of neurons after chemical ischemia", "setting": "[5]; 1 μM, control cells 4.8±3.4%", "value": "72.1±4.4", "unit": "%"}, {"measurement": "EC50", "setting": "[5]", "value": 300, "unit": "nM"}, {"measurement": "concentration at which the neuroprotective effect peaks", "setting": "[5]; dose response, FIG. 2", "value": "about 1 μM"}, {"measurement": "neuroprotective effect compared between compounds", "setting": "[5]", "value": "comparable and strongest"}, {"measurement": "EC50", "setting": "[6]; [10]", "value": 100, "unit": "nM"}]}, {"smiles": "CC12CCC3C(CC[C@H]4NC(=O)CCC34C)C1CCC2C(=O)O", "note": "(stereo partly drawn) [COAAA, 4α,6α-di methyl-2-oxo-hexadecahydro-indeno[5,4-f]quinoline-7-carboxylic-acid]", "values": [{"measurement": "EC50", "setting": "[4]; [9]", "value": 5000, "unit": "nM"}, {"measurement": "EC50", "setting": "[5]", "value": 1000, "unit": "nM"}, {"measurement": "neuroprotective effect compared between compounds", "setting": "[5]", "value": "nearly as efficacious"}, {"measurement": "EC50", "setting": "[6]; [10]", "value": 2000, "unit": "nM"}]}, {"smiles": "CC12CCC3C(CC[C@H]4NC(=O)CCC34C)C1CCC2C(=O)NCCN", "note": "(stereo partly drawn) [AEOAA, 4α,6α-dimethyl-2-oxo-hexadecahydro-indeno[5,4-f]quinoline-7-carboxylic-(2-amino-ethyl)-amide hydrochloride]", "values": [{"measurement": "EC50", "setting": "[4]; [9]", "value": 5000, "unit": "nM"}, {"measurement": "EC50", "setting": "[5]", "value": 5000, "unit": "nM"}, {"measurement": "neuroprotective effect compared between compounds", "setting": "[5]", "value": "considerably less active"}, {"measurement": "EC50", "setting": "[6]; [10]", "value": 4000, "unit": "nM"}]}]}
